Patent publication US4499104A, “Imidazole compound, the process for its preparation, and therapeutically active compositions containing same” (priority 1976, dated 1985)

Key:
[1] = Anticonvulsive activity against cardiazole; type: in vivo, Rockland-Ocefa mice; settings: for Protection from convulsivant cardiazole, first value: first of two values; for Protection from convulsivant cardiazole, second value: second of two values
Procedure: Rockland-Ocefa mice of both sexes weighing 22±3 g and fasting for 16 hours were used.

[2] = system: rats; test: Chronic toxicity, first experiment (60 days); type: in vivo, Wistar-Ocefa rats; settings: 60 days
Procedure: (§1) Wistar-Ocefa rats of both sexes weighing 70-90 g were used, divided into groups of 30 animals (15 males and 15 females) to a total of […].
(§2) Chlorophenazole and phenylbutazone (reference drug) were administered orally for a period of 60 days in doses of 30-60 mg/kg of chlorophenazole and 8-160 mg/kg of phenylbutazone (first experiment) and for a period of 5 months in doses of 6-12 mg/kg of chlorophenazole and 16 mg/kg of phenylbutazone (second experiment).
(§3) The following parameters were determined periodically: behavior, general state, food consumption, body weight, red blood cell number, white blood cell number, leucocite formula, hemoglobin, hematocrit, globular value, total proteins, glycemia, azotemia, cholesterol, total lipids, triglycerides, creatinine, GOT, GPT, urine analysis. At the end of the experiment the animals were sacrificed, their general state was observed, the following organs were weighed: liver, spleen, kidneys, supranenes, ovary and testicles, lungs, heart, stomach.

[3] = system: Dog; test: Acute toxicity, dog; type: in vivo
[4] = Action on sleep by barbiturates; type: in vivo, Wistar-Ocefa rats
Procedure: […] Loss of the redressment reflex was taken to indicate commencement of sleep. The chlorophenazone was administered orally with a dose of 1/10 of the DL50. The induction time and the duration of sleep were measured.

[5] = system: rats; test: Chronic toxicity, second experiment (5 months); type: in vivo, Wistar-Ocefa rats; settings: for cholesterol: male rats
Procedure: as §1, §2, §3

[6] = Acute toxicity, mouse; settings: in vivo, read-out: DL50 and L.F.
[7] = Anticonvulsive activity against strychnine; type: in vivo, Rockland-Ocefa mice; settings: for Protection from convulsivant strychnine, first value: first of two values; for Protection from convulsivant strychnine, second value: second of two values
Procedure: Rockland-Ocefa mice of both sexes weighing 22±3 g and fasting for 16 hours were used. The convulsive agents were administered i.p. in doses of 2 mg/kg of strychnine sulphate and 110 mg/kg of cardiazole.

[8] = system: human; test: Human therapy; type: in vivo
[9] = system: Rabbit; test: Acute toxicity, rabbit; type: in vivo; settings: intravenous injection
Procedure: (b) Rabbit: by intravenous injection DL100 =55 mg/kg

[10] = system: Rat; settings: in vivo
[11] = Antipyretic activity, hyperthermia by lysate of Neisseria perflava in rabbit; type: in vivo, male albino rabbits; settings: oral
Procedure: This was first studied in the rabbit, using 6 male albino rabbits of 3-3.5 kg per group, made hyperthermal by i.v. injection of 0.5 ml/kg of a lysate of Neisseria perflava. The rectal temperature was determined by thermocouples every 60 minutes for 3 hours. The difference in temperature was calculated between maximum elevation and base temperature at each time. The drug was administered orally.

[12] = Antipyretic activity, hyperthermia by beer yeast in rat; type: in vivo, Wistar stock; settings: oral, 1/10 of DL50; chlorophenazole 50 mg/kg, phenylbutazone 35 mg/kg
Procedure: It was then measured in the rat using 10 animals of Wistar stock per group weighing 170-200 g, made hyperthermal by subcutaneous injection of a 10% beer yeast suspension in distilled water.
The compounds awere administered orally 60 minutes after the induction of fever in doses equal to 1/10 of the DL50. Readings were taken at 30 minute intervals for 5 hours.

[13] = system: Rat; test: Acute toxicity, rat
[14] = in vivo; settings: rat
[15] = chlorophenazole 51.5 mg/kg oral + pentobarbital sodium 20 mg/kg

## Cc1[nH]cnc1-c1ccc(Cl)cc1 [Chlorophenazole, 4-(p-chlorophenyl)-5-methylimidazole]
[1]; 50 mg/kg, 15'
  Protection from convulsivant cardiazole, first value: 6.23
  Protection from convulsivant cardiazole, second value: 6.70
[1]; 50 mg/kg, 30'
  Protection from convulsivant cardiazole, first value: 10.80
  Protection from convulsivant cardiazole, second value: 8.30
[1]; 50 mg/kg, 90'
  Protection from convulsivant cardiazole, first value: 8.10
  Protection from convulsivant cardiazole, second value: 7.0
[1]; 100 mg/kg, 15'
  Protection from convulsivant cardiazole, first value: 9.90
  Protection from convulsivant cardiazole, second value: 8.90
[1]; 100 mg/kg, 30'
  Protection from convulsivant cardiazole, first value: 13.00
  Protection from convulsivant cardiazole, second value: 26.40
[1]; 100 mg/kg, 90'
  Protection from convulsivant cardiazole, first value: 28.70
  Protection from convulsivant cardiazole, second value: 20.00
[1]; 200 mg/kg, 15'
  Protection from convulsivant cardiazole, second value: 9.2
[1]; 200 mg/kg, 30'
  Protection from convulsivant cardiazole, second value: 27.30
[1]; 200 mg/kg, 90'
  Protection from convulsivant cardiazole, second value: 30.10
[1]; cardiazole and strychnine
  framework of convulsive death: does not modify the framework of convulsive death
  premortal period: significant elongation of the premortal period
[2]
  stomach appearance: distended and rose colored
[2]; larger doses
  cholesterol: the same for cholesterol at the larger doses
[3]
  DL100: 50 mg/kg
[4]; 1/10 of the DL50 oral
  action on sleep by barbiturates: improves sleep by barbiturates
[4]; [15]
  Induction time: 2.9 min
  Sleeping time: 65.2 min
[5]; 6 mg/kg
  cholesterol: significant alteration
[5]; 12 mg/kg, female rats
  glycemia: small increase in glycemia
[5]; greater dose
  cholesterol: not confirmed with the greater dose
[6]; ip
  LD50: 175 mg/kg
[6]; po, os
  LD50: 534 mg/kg
[7]; 50 mg/kg, 15'
  Protection from convulsivant strychnine, first value: 7.0
  Protection from convulsivant strychnine, second value: 7.4
[7]; 50 mg/kg, 30'
  Protection from convulsivant strychnine, first value: 12.8
  Protection from convulsivant strychnine, second value: 12.6
[7]; 50 mg/kg, 90'
  Protection from convulsivant strychnine, first value: 8.7
  Protection from convulsivant strychnine, second value: 13.8
[7]; 100 mg/kg, 15'
  Protection from convulsivant strychnine, first value: 11.7
  Protection from convulsivant strychnine, second value: 19.5
[7]; 100 mg/kg, 30'
  Protection from convulsivant strychnine, first value: 11.3
  Protection from convulsivant strychnine, second value: 13.8
[7]; 100 mg/kg, 90'
  Protection from convulsivant strychnine, first value: 9.5
  Protection from convulsivant strychnine, second value: 11.5
[7]; 200 mg/kg, 15'
  Protection from convulsivant strychnine, first value: 28.6
  Protection from convulsivant strychnine, second value: 18.3
[7]; 200 mg/kg, 30'
  Protection from convulsivant strychnine, first value: 12.8
  Protection from convulsivant strychnine, second value: 16.0
[7]; 200 mg/kg, 90'
  Protection from convulsivant strychnine, first value: 18.2
  Protection from convulsivant strychnine, second value: 21.0
[8]
  pharmacological results in human therapy: fully confirmed in human therapy
[9]
  DL100: 55 mg/kg
  final framework (symptoms): marked muscular hypotonia, an almost catatonic state and death by respiratory paralysis
[10]
  toxicity relative to niflumic acid: much less toxic than the latter
[11]
  protection from temperature increase: clearly protected the animals from temperature increase
[12]
  antipyretic activity relative to phenylbutazone: superiority over phenylbutazone
[13]; rat and mouse, acute toxicity
  symptoms preceding death: reduction in spontaneous motility, sedation, hypotherma, paralysis
[13]; summary
  acute toxicity values and therapeutic index relative to phenylbutazone: well in excess of those for phenylbutazone
[14]; ip
  LD50: 135 mg/kg
[14]; po
  LD50: 515 mg/kg
